Tests used:
Type in all cases: cell-based
[1] = test system: MDA-MB-231 (breast cancer); assay: Antiproliferative activity (CCK-8 cell viability), MDA-MB-231; details: Homo sapiens, 72 h, read-out: Antiproliferative activity in cancerous cells, MDA-MB-231 (inhibition of cell growth); for inhibition at 3.3 µM: Compound concentration: 3.3 μM; for inhibition at 10 µM: Compound concentration: 10 μM
How it was run: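 In this CCK-8 viability assay, MDA-MB-231 cells maintained in Dulbecco's modified Eagle's medium containing 10% fetal bovine serum were placed in 96-well plates (2,000-5,000 cells/well) and treated with compound for 72 h at 37° C. A 4 h incubation with 10 μL CCK-8 followed, plates were read at 450 nm, and viability was expressed against DMSO vehicle wells across replicates.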

[2] = test system: HepG2 (liver cancer); assay: Antiproliferative activity (CCK-8 cell viability), HepG2; details: Homo sapiens, 72 h, read-out: Antiproliferative activity in cancerous cells, HepG2 (inhibition of cell growth); for inhibition at 3.3 µM: Compound concentration: 3.3 μM; for inhibition at 10 µM: Compound concentration: 10 μM
How it was run: (§1)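 Cells were seeded at 2,000-5,000/well (HeLa in MEM, HepG2 and SW480 in DMEM, A549 in F-12K, all with 10% FBS) and treated with compound at 3.3, 10 or 30 μM for 72 h at 37° C. CCK-8 was added for 4 h, absorbance was read at 450 nm, and viability was expressed relative to DMSO-treated wells.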

[3] = test system: SW480 (colon cancer); assay: Antiproliferative activity (CCK-8 cell viability), SW480; details: Homo sapiens, 72 h; for inhibition at 3.3 µM: Compound concentration: 3.3 μM; for inhibition at 3.3 µM / inhibition at 10 µM: read-out: Antiproliferative activity in cancerous cells, SW480 (inhibition of cell growth); for inhibition at 10 µM: Compound concentration: 10 μM
How it was run: as §1

[4] = test system: B16F10 (malignant melanoma); assay: Antiproliferative activity (CCK-8 cell viability), B16F10; details: Mus musculus, 72 h, read-out: Antiproliferative activity in cancerous cells, B16F10 (inhibition of cell growth); for inhibition at 3.3 µM: B16-F10, Compound concentration: 3.3 μM; for inhibition at 10 µM: B16-F10, Compound concentration: 10 μM
How it was run: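 Attached B16F10 cells in 96-well plates were incubated with compound at 37° C for 72 h, followed by 10 μL CCK-8 reagent per well and a further 4 h incubation. A multi-well plate reader measured absorbance at 450 nm. Percent viability across replicates was calculated against DMSO vehicle-treated cells.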

[5] = test system: A431 (epidermoid carcinoma); assay: Antiproliferative activity (CCK-8 cell viability), A431; details: Homo sapiens, 72 h, read-out: Antiproliferative activity in cancerous cells, A431 (inhibition of cell growth); for inhibition at 3.3 µM: A-431, Compound concentration: 3.3 μM; for inhibition at 10 µM: A-431, Compound concentration: 10 μM
How it was run: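 Cell viability of compound-treated A431 cells was measured with a Cell Counting Kit-8. Each well received 10 μL of CCK-8 after 72 h of compound exposure, followed by 4 h incubation at 37° C. and a 450 nm plate-reader measurement. Percent viability was calculated relative to DMSO controls across replicates.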

[6] = test system: A549 (lung adenocarcinoma); assay: Antiproliferative activity (CCK-8 cell viability), A549; details: Homo sapiens, 72 h, read-out: Antiproliferative activity in cancerous cells, A549 (inhibition of cell growth); for inhibition at 3.3 µM: Compound concentration: 3.3 μM; for inhibition at 10 µM: Compound concentration: 10 μM
How it was run: as §1

[7] = test system: HeLa (cervical cancer); assay: Antiproliferative activity (CCK-8 cell viability), HeLa; details: Homo sapiens, 72 h, read-out: Antiproliferative activity in cancerous cells, HELA (inhibition of cell growth); for inhibition at 3.3 µM: Compound concentration: 3.3 μM; for inhibition at 10 µM: Compound concentration: 10 μM
How it was run: as §1

| SMILES | inhibition at 3.3 µM [1] [%] | inhibition at 10 µM [1] [%] | inhibition at 3.3 µM [2] [%] | inhibition at 10 µM [2] [%] | inhibition at 3.3 µM [3] [%] | inhibition at 10 µM [3] [%] | inhibition at 3.3 µM [4] [%] | inhibition at 10 µM [4] [%] | inhibition at 3.3 µM [5] [%] | inhibition at 10 µM [5] [%] | inhibition at 3.3 µM [6] [%] | inhibition at 10 µM [6] [%] | inhibition at 3.3 µM [7] [%] | inhibition at 10 µM [7] [%] | inhibition at 30 µM ([3]; Compound concentration: 30 μM, read-out: Antiproliferative activity in cancerous cells, SW480) [%] |
| --- | --- | --- | --- | --- | --- | --- | --- | --- | --- | --- | --- | --- | --- | --- | --- |
| CC1=C(CC(=O)O)c2cc(F)ccc2/C1=C\c1ccc(Oc2ccc(O)c(Cl)c2)cc1 [C81, (Z)-2-(1-(4-(3-Chloro-4-hydroxyphenoxy)benzylidene)-5-fluoro-2-methyl-1H-inden-3-yl)acetic acid] | 30 to 50 | ≥ 50 | < 30 | ≥ 50 | < 30 | < 30 | < 30 | ≥ 50 | 30 to 50 | ≥ 50 | 30 to 50 | ≥ 50 | 30 to 50 | ≥ 50 |  |
| COc1ccc(Oc2ccc(/C=C3/C(C)=C(CC(=O)O)c4cc(Cl)ccc43)cc2)cc1 [C82, (Z)-2-(5-Chloro-1-(4-(4-methoxyphenoxy)benzylidene)-2-methyl-1H-inden-3-yl)acetic acid] | ≥ 50 | ≥ 50 | < 30 | ≥ 50 | < 30 | < 30 | ≥ 50 | ≥ 50 | ≥ 50 | ≥ 50 | 30 to 50 | ≥ 50 | < 30 | ≥ 50 | 30 to 50 |
| CC1=C(CC(=O)O)c2cc(Cl)c(Cl)cc2/C1=C\c1ccc(Oc2ccc(F)cc2)cc1 [C83, (Z)-2-(5,6-Dichloro-1-(4-(4-fluorophenoxy)benzylidene)-2-methyl-1H-inden-3-yl)acetic acid] | ≥ 50 | ≥ 50 | < 30 | ≥ 50 | ≥ 50 | ≥ 50 | ≥ 50 | ≥ 50 | ≥ 50 | ≥ 50 | ≥ 50 | ≥ 50 | ≥ 50 | ≥ 50 |  |
| CC1=C(CC(=O)O)c2cc(Cl)ccc2/C1=C\c1ccc(Oc2ccc(C(C)C)cc2)cc1 [C84, (Z)-2-(5-Chloro-1-(4-(4-isopropylphenoxy)benzylidene)-2-methyl-1H-inden-3-yl)acetic acid] | ≥ 50 | ≥ 50 | ≥ 50 | ≥ 50 | ≥ 50 | ≥ 50 | ≥ 50 | ≥ 50 | ≥ 50 | ≥ 50 | ≥ 50 | ≥ 50 | ≥ 50 | ≥ 50 |  |
| CCc1ccc(Oc2ccc(/C=C3/C(C)=C(CC(=O)O)c4cc(Cl)ccc43)cc2)cc1 [C85, (Z)-2-(5-Chloro-1-(4-(4-ethylphenoxy)benzylidene)-2-methyl-1H-inden-3-yl)acetic acid] | ≥ 50 | ≥ 50 | ≥ 50 | ≥ 50 | < 30 | ≥ 50 | 30 to 50 | ≥ 50 | ≥ 50 | ≥ 50 | < 30 | ≥ 50 | ≥ 50 | ≥ 50 |  |

Source: patent US20260184663A1, “INDENE COMPOUNDS, PHARMACEUTICAL COMPOSITIONS THEREOF, AND THEIR THERAPEUTIC APPLICATIONS” (NucMito Pharmaceuticals co. Ltd., priority 2022, published 2026)
